{
  "source": "patent US20250082714A1",
  "about": "“METHODS AND COMPOSITIONS FOR THE TREATMENT OR PREVENTION OF MUSCULAR DYSTROPHY” (Stealth BioTherapeutics Inc., priority 2021, published 2025)",
  "key": {"[1]": {"system": "C57BL/10ScSn-Dmdmdx/J (mdx) mice", "assay": "H&E inflammation analysis of TA muscle sections", "format": "in vivo, mouse", "conditions": "as compared to the mdx vehicle group; PMO 125 mg/kg, MTP-131 5 mg/kg", "protocol": "(§1) Treatment groups. Four-week-old C57BL/10ScSnJ (stock #000476) and C57BL/10ScSn-Dmdmdx/J mice (stock #001801) were sourced from Jackson Laboratory in Bar Harbor, USA and sorted into a total of five treatment groups (Table 1). The C57BL/10ScSnJ (BL10) mice received vehicle #1 (1×PBS) and vehicle #2 (0.9% Saline). Of the C57BL/10ScSn-Dmdmdx/J (mdx) groups, one received vehicle #1(1×PBS) and vehicle #2 (0.9% Saline), the second group was treated with PMO (125 mg/kg) and vehicle #2 (0.9% Saline), the third group was treated with vehicle #1 (1×PSB) and MTP-131 (5 mg/kg), and the final group was treated with both PMO (125 mg/kg) and MTP-131 (5 mg/kg). PMO compound and the respective vehicle (1×PBS) was administered weekly via retro-orbital injection. MTP-131 compound and the vehicle (0.9% saline) were administered daily via intraperitoneal (IP) injection. Treatment was for a total of 7 weeks.\nHistological analysis—H&E—Inflammation Analysis. TA muscle (n=8/group) was sectioned at 10 μm (2 sections/slide) and stored at −80° C. until the staining was performed. Slides were stained with Hematoxylin & Eosin (H&E) and were analyzed for percent inflammation. An inflammatory focus (pl. foci) was measured by counting 10 or more inflammatory cells in a single cluster. These foci areas were measured in mm2 and then compared to the tissue's total area, from which a percentage was calculated. […]"}, "[2]": {"system": "dystrophin", "assay": "Western blot of dystrophin in tibialis anterior (TA) muscle of treated mdx mice", "format": "in vivo, mouse (C57BL/10ScSn-Dmdmdx/J", "conditions": "7 weeks; for % Dystrophin Average: average of treatment group (n=14-15 mdx mice); for % Dystrophin: individual mdx mouse", "protocol": "as §1\nExperimental endpoint measures. Upon arrival from Jackson laboratory to the Life Science Research Institute (LSRI) animal facility in Halifax, Canada, 4 week-old BL10 and mdx mice were subjected to a one-week acclimation period to the new facility, after which they were weighed, ear-tagged, and randomized. Once randomized, the animals were treated daily for 7 weeks. During treatment, mice were visually assessed for health (altered food and water consumption, abnormal breathing, circling, eye/hair matting and any other features of abnormal appearance). All treatment groups followed the experimental design outlined in Table 2. In vitro force measurements and takedowns were performed throughout weeks 6-7. Takedowns were staggered to accommodate the in vitro force schedule. Scheduling was representative of the treatment groups.\nTreatment preparation—PMO. The phosphorodiamidate morpholino oligomer (PMO) was sourced from Gene Tools, LLC. The PMO used was mExon 23(+07-18) (5′-[…]-3′) (SEQ ID NO: 1) against the boundary sequences of exon and intron 23 of the mouse dystrophin gene. The PMO was prepared fresh weekly by diluting the compound in 1×PBS to the stock concentration of 100 mg/ml. Any remaining compound was stored at 4° C.\nTreatment preparation—MTP-131. MTP-131 dosing formulation was prepared weekly and filtered through a […] polyether sulfone (PES) filter. Because MTP-131 is extremely hygroscopic it was conditioned before use and weighed immediately after. If possible, MTP-131 was weighed in a low moisture environment (<20% RH). Prior to use, MTP-131 was removed from the refrigerator. The un-opened bottle was placed in a low moisture environment (<20% RH) and allowed to equilibrate at room temperature for at least 2 hours. Quickly, an aliquot was weighed for use without returning any un-used standard to the bottle and the bottle was immediately tightly capped. Immediately after use, the inside of the bag was wiped with a paper towel to remove any moisture, and the reference bottle (tightly capped) was placed back into the aluminum bag, re-sealed and placed back in 2-8° C. storage.\nTreatment administration—PMO. PMO compound was delivered weekly via retro-orbital intravenous injection using a 28-gauge needle. Mice were gently removed from their cage and anesthetized using 5% isoflurane and maintained with 1.5-2% isoflurane. Once the pedal reflex was absent, the mouse was positioned on its side, and loose skin behind the shoulders and ears pinned back using the thumb and middle finger of the non-dominant hand. The skin surrounding the eye was drawn back using the index finger, allowing the eye to protrude slightly. The needle was inserted carefully at a 30° angle with the bevel away from the eye, lateral to the medial canthus, through the conjunctival membrane. Once in the retro-orbital sinus, the compound was slowly injected (10 μl/5-10 seconds). The needle was then carefully removed to prevent injury and leakage. If more than 20 μl of leakage occurred, the injectable was aspirated back into the syringe and injected again. […]"}, "[3]": {"conditions": "PMO 125 mg/kg weekly, MTP-131 5 mg/kg daily"}, "[4]": {"conditions": "Run 1, Gel #5, PMO 125 mg/kg weekly retro-orbital, MTP-131 5 mg/kg daily IP"}, "[5]": {"conditions": "Run 1, Gel #6, PMO 125 mg/kg weekly, MTP-131 5 mg/kg daily"}, "[6]": {"conditions": "Run 2, Gel #7, PMO 125 mg/kg weekly, MTP-131 5 mg/kg daily"}, "[7]": {"conditions": "Run 2, Gel #8, PMO 125 mg/kg weekly, MTP-131 5 mg/kg daily"}, "[8]": {"conditions": "Run 3, Gel #9, PMO 125 mg/kg weekly, MTP-131 5 mg/kg daily"}, "[9]": {"conditions": "Run 3, Gel #10, PMO 125 mg/kg weekly, MTP-131 5 mg/kg daily"}},
  "note": "Where “and” joins values, the source holds several entries; their conditions need not be identical. Equal entries are not always repeated. Where a SMILES comes first, the peptide text is derived from it. [ ]: non-standard residue; d: D form. Dmt = Cc1cc(O)cc(C)c1C[C@H](N)C(=O)O",
  "data": [
    {"compound": "Cc1cc(O)cc(C)c1C[C@H](NC(=O)[C@H](N)CCCNC(=N)N)C(=O)N[C@@H](CCCCN)C(=O)N[C@@H](Cc1ccccc1)C(N)=O", "note": "[MTP-131, H-D-Arg-2′6′-Dmt-Lys-Phe-NH2] (H-[dR][Dmt]KF-NH2)", "values": [
      {"measurement": "inflammation in the tibialis anterior muscles", "setting": "[1]", "value": "reduced"},
      {"measurement": "% Dystrophin Average", "setting": "[2]; [3]", "value": 0.70, "unit": "%"},
      {"measurement": "% Dystrophin", "setting": "[2]; [4]", "value": "0.3% and 0.4% and 0.6%"},
      {"measurement": "% Dystrophin", "setting": "[2]; [5]", "value": "1.0% and 1.2%"},
      {"measurement": "% Dystrophin", "setting": "[2]; [6]", "value": 0.8, "unit": "%"},
      {"measurement": "% Dystrophin", "setting": "[2]; [7]", "value": 0.8, "unit": "%"},
      {"measurement": "% Dystrophin", "setting": "[2]; [8]", "value": 1.0, "unit": "%"},
      {"measurement": "% Dystrophin", "setting": "[2]; [9]", "value": 0, "unit": "%"},
      {"measurement": "% Dystrophin", "setting": "[2]; summary by treatment group, PMO 125 mg/kg weekly, MTP-131 5 mg/kg daily", "value": "1.00% (3×) and 1.10% and 0.00% (2×) and 0.80% (4×) and 0.30% and 0.40% and 0.60% and 1.20%"}
    ]},
    {"compound": "PMO: phosphorodiamidate morpholino oligomer mExon 23(+07-18), 5′-GGCCAAACCTCGGCTTACCTGAAAT-3′ (SEQ ID NO: 1), against exon/intron 23 boundary of mouse dystrophin gene; Gene Tools (all phosphorodiamidate morpholino (PMO)) [reference compound]", "values": [
      {"measurement": "inflammation in the tibialis anterior muscles", "setting": "[1]", "value": "reduced"},
      {"measurement": "% Dystrophin Average", "setting": "[2]; [3]", "value": 3.66, "unit": "%"},
      {"measurement": "% Dystrophin", "setting": "[2]; [4]", "value": "6.0% and 4.2%"},
      {"measurement": "% Dystrophin", "setting": "[2]; [5]", "value": "4.7% and 2.7%"},
      {"measurement": "% Dystrophin", "setting": "[2]; [6]", "value": "1.2% and 1.7% and 7.4%"},
      {"measurement": "% Dystrophin", "setting": "[2]; [7]", "value": "3.2% and 1.4%"},
      {"measurement": "% Dystrophin", "setting": "[2]; [8]", "value": "1.4% and 3.9%"},
      {"measurement": "% Dystrophin", "setting": "[2]; [9]", "value": "3.1% and 2.9% and 7.2%"}
    ]}
  ]
}
